In patent US20230103631A1, “PEPTIDES AS SELECTIVE GIP RECEPTOR AGONISTS” (Sanofi, priority 2020, published 2023):
*1 amine or outer side, *2 acyl side, *3 side chain or, on linkers, in order; H or OH if unused. Where a SMILES comes first, the peptide text is derived from it. Side-chain parts run from the residue outwards. [ ]: non-standard residue; d: D form. The star is where a group is joined. C20 diacid = O=C(O)CCCCCCCCCCCCCCCCCCC(=O)*; C18 diacid = O=C(O)CCCCCCCCCCCCCCCCC(=O)*; γGlu = O=C(O)[C@H](CCC(=O)[*:2])N[*:1]; AEEA = NCCOCCOCC(=O)O; Aib = CC(C)(N)C(=O)O; Sar = CNCC(=O)O

Columns and labels:
[1] = molecular target: human GLP-1 receptor (hGLP-1R) (Homo sapiens, UniProt P43220); test: cAMP HTRF assay, HEK-293 cell line over-expressing human GLP-1 receptor; type: cell-based; details: HEK-293, cAMP, 0% HSA
human GLP-1 receptor (hGLP-1R), sequence (P43220 24-463): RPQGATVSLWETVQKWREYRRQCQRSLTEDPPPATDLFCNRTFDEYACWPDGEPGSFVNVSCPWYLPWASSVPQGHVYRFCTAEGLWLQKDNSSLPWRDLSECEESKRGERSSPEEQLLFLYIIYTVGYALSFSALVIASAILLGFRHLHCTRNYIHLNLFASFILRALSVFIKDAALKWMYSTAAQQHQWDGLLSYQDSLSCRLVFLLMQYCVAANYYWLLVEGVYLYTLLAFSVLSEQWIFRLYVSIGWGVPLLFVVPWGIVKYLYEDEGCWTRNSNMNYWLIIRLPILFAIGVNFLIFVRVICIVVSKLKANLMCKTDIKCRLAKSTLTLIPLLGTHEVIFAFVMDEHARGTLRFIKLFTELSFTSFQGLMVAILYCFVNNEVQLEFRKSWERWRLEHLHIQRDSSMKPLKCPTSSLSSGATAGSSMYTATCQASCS
Method: Each vial contained 1.8 ml cells. The vials were slowly frozen to −80° C. in isopropanol, and then transferred in liquid nitrogen for storage.
Prior to their use, frozen cells were thawed quickly at 37° C. and washed (5 min at 900 rpm) with 20 ml cell buffer (1× HBSS; 20 mM HEPES, plus 0.1% HSA if indicated in Example conditions).
For measurement of cAMP generation, 5 μl cells (final 5000 cells/well) and 5 μl of test compound were added to a 384-well plate, followed by incubation for 30 min at room temperature.
The cAMP generated was determined using a kit from Cisbio Corp. based on HTRF (Homogenous Time Resolved Fluorescence). The cAMP assay was performed according to manufacturer's instructions (Cisbio).

physchem = type: physicochemical; details: for Soluble amount: 24 h, pH 7.4; for solubility at 24 h: pH 7.4, Soluble amount
Method: Prior to the solubility measurement of a peptide batch, its purity was determined through UHPLC/MS. […] Therefore, solutions from solid samples were prepared in a buffer system with a concentration of 10 mg/ml compound based on the previously determined % purity: Solubility buffer system A) 100 mM phosphate buffer pH 7.4 […] Solubility buffer system C) 100 mM phosphate buffer pH 7.4, 2.7 mg/ml m-cresol UHPLC-UV was performed after 1 h of gentle agitation and storage at 5° C. over night (24 h) from the supernatant, which was obtained after 15 min of centrifugation at 2500 RCF (relative centrifugal acceleration). […] The different UV extinction coefficients of sample and reference peptide were calculated based on the different amino acid sequences and considered in the concentration calculation. The analytical method used was Analytical UHPLC Method A. Peptide samples were prepared in solubility buffer system A or C and solubility was assessed as described in Methods.

C57Bl/6 mice = test: Intraperitoneal glucose tolerance test (ipGTT) after s.c. treatment; type: in vivo; details: 10 nmol/kg s.c. 6 h before i.p. glucose load, mean ± SEM
Method: Healthy, normoglycemic male C57Bl/6NCrl mice were ordered in an age of 9-10 weeks with an approximate body weight (BW) of 24-26 g at Charles River Laboratories Deutschland GmbH, 97633 Sulzfeld, Germany. Mice were shipped grouped housed (N=4 per cage), acclimatized for one week and remained grouped housed throughout the entire study. Mice were housed under vivarium conditions that included a 12 h light/dark cycle (light phase 06:00 AM-06:00 PM), mean room temperature of 22±2° C. and a relative mean humidity of 55±10%. All animals had free access to food (Ssniff R/M-H diet) and water prior to study start.
The primary objective of the study was to investigate the compound-induced lowering of the blood glucose excursion and improvement of glucose tolerance in a mouse ipGTT setting and therefore the primary parameters included blood glucose, delta blood glucose (normalized to the time point just prior to the i.p. glucose challenge, t=0 h) and their respective calculated area under curve (AUC) values. The study was performed as an acute, single dosing study with 6 groups and the male animals were randomly divided to groups of 7-8 mice per group. Dose-dependent pharmacodynamic blood glucose lowering efficacy of the GIPR agonist was analyzed with s.c. injections 6 h before the i.p. glucose load in the dose range from 3 up to 100 nmol/kg and compared to the vehicle group as well as the semaglutide positive control at a dose of 10 nmol/kg.
In more detail, mice were fed overnight and on the following morning brought to the lab with food removed but ad libitum access to water. Blood samplings (5 μl) were performed at: −6.5, −0.5, 0, 0.17, 0.5, 1, 1.5, 2 and 3 h before and after the glucose bolus of 1 g glucose per kg BW i.p. given at time point t=0 h. On time point t=0.17 h an additional K-EDTA plasma sample from 60-80 μl blood was taken for plasma insulin analysis. Blood was withdrawn from the tip of the tail. The GIPR agonist and semaglutide were dissolved in 10 mM phosphate buffer pH 7.4 with 2.3% glycerol and 0.01% polysorbat 20 (vehicle) and s.c. treatment was performed −6 h before the glucose load (t=0 h) using an injection volume of 5 ml/kg. The injection solutions were freshly prepared prior to the experiment using sterile filtered vehicle solution.
Blood glucose was determined enzymatically (Gluco-quant® Glucose/HK kit on Roche/Hitachi 912). Plasma insulin was determined using a mouse/rat insulin sandwich immunoassay kit from Meso Scale Discovery.
All data were collected using Microsoft Excel. None of the data were collected online. The results are expressed as means±standard error of the mean (SEM). As primary study parameters, blood glucose, baseline (time point t=0 h) subtracted delta blood glucose and their respective calculated area under curve (AUC) values were determined. The respective AUC data were calculated using the trapezoid rule for the time period t=0 h until t=2 h.
The statistical analysis of the ipGTT blood glucose excursion data response following subcutaneous compound or vehicle treatment was performed on the calculated AUC values of blood glucose raw data as well as the calculated AUC values for baseline subtracted delta blood glucose data. In a first step the Levene's test was used to test for equality of variances between groups. Where Levene's test was significant (p s 0.05), a rank transformation of the calculated AUC data was applied to stabilize the variances before ANOVA analysis was conducted. Where Levene's test was not significant (p>0.05) ANOVA was conducted without prior rank transformation. In a second step a One-way ANOVA analysis for factor treatment followed by Dunnett's multiple comparisons test vs. vehicle group was used to test for statistical differences. Different levels of significance were defined as *=p<0.05, **=p<0.001, ***=p<0.0001. All analyses were performed using SAS (version 9.4) under Linux via the interface software EverSt@t V6.1. […]

Row | Molecule | EC50 [1] | Soluble amount (physchem) | solubility at 24 h (physchem) | Incremental blood glucose concentration AUCi (C57Bl/6 mice; vehicle +4.93 ± 0.324) | Blood glucose concentration AUC (C57Bl/6 mice; vehicle +22.15 ± 0.662)
1 | CC[C@H](C)[C@H](NC(=O)[C@H](Cc1ccccc1)NC(=O)[C@H](CCC(=O)O)NC(=O)[C@H](CCC(=O)O)NC(=O)[C@H](CCC(N)=O)NC(=O)[C@H](Cc1c[nH]cn1)NC(=O)[C@@H](NC(=O)[C@H](CCCNC(=N)N)NC(=O)[C@H](CC(=O)O)NC(=O)[C@H](CCCCNC(=O)COCCOCCNC(=O)COCCOCCNC(=O)CC[C@H](NC(=O)CC[C@H](NC(=O)CCCCCCCCCCCCCCCCCCC(=O)O)C(=O)O)C(=O)O)NC(=O)C(C)(C)NC(=O)[C@@H](NC(=O)[C@H](CO)NC(=O)[C@H](CC(C)C)NC(=O)[C@H](CC(=O)O)NC(=O)[C@H](CO)NC(=O)[C@@H](NC(=O)[C@H](Cc1ccccc1)NC(=O)[C@@H](NC(=O)CNC(=O)[C@H](CCC(=O)O)NC(=O)C(C)(C)NC(=O)[C@@H](N)Cc1ccc(O)cc1)[C@@H](C)O)[C@@H](C)CC)[C@@H](C)CC)[C@@H](C)CC)C(=O)N[C@@H](CCC(=O)O)C(=O)N[C@@H](Cc1c[nH]c2ccccc12)C(=O)N[C@@H](CC(C)C)C(=O)N[C@@H](CC(C)C)C(=O)N[C@@H](C)C(=O)N[C@@H](CCC(N)=O)C(=O)NCC(=O)N1CCC[C@H]1C(=O)N[C@@H](CO)C(=O)N[C@@H](CO)C(=O)NCC(=O)N[C@@H](C)C(=O)N1CCC[C@H]1C(=O)N1CCC[C@H]1C(=O)N1CCC[C@H]1C(=O)N[C@@H](CO)C(N)=O [SEQ ID NO: 15, H2N-Y-Aib-E-G-T-F-I-S-D-I-S-I-Aib-K[{AEEA}2-{gGlu}2-C20OH]-DRIHQEEFIEWILAQGPSSGAPPPS-NH2] (H-Y[Aib]EGTFISDLSI[Aib]K([AEEA-AEEA-γGlu-γGlu-C20 diacid])DRIHQEEFIEWLLAQGPSSGAPPPS-NH2) | > 0.01 µM | >9.2 mg/mL | > 10.3 mg/mL |  | 
2 | CC[C@H](C)[C@H](NC(=O)[C@H](Cc1ccccc1)NC(=O)[C@H](CCC(=O)O)NC(=O)[C@H](CCC(=O)O)NC(=O)[C@H](CCC(N)=O)NC(=O)[C@H](Cc1c[nH]cn1)NC(=O)[C@@H](NC(=O)[C@H](CCCNC(=N)N)NC(=O)[C@H](CC(=O)O)NC(=O)[C@H](CCCCNC(=O)CNC(=O)CNC(=O)CNC(=O)CC[C@H](NC(=O)CCCCCCCCCCCCCCCCC(=O)O)C(=O)O)NC(=O)C(C)(C)NC(=O)[C@@H](NC(=O)[C@H](CO)NC(=O)[C@H](CC(C)C)NC(=O)[C@H](CC(=O)O)NC(=O)[C@H](CO)NC(=O)[C@@H](NC(=O)[C@H](Cc1ccccc1)NC(=O)[C@@H](NC(=O)CNC(=O)[C@H](CCC(=O)O)NC(=O)C(C)(C)NC(=O)[C@@H](N)Cc1ccc(O)cc1)[C@@H](C)O)[C@@H](C)CC)[C@@H](C)CC)[C@@H](C)CC)C(=O)N[C@@H](CCC(=O)O)C(=O)N[C@@H](Cc1c[nH]c2ccccc12)C(=O)N[C@@H](CC(C)C)C(=O)N[C@@H](CC(C)C)C(=O)N[C@@H](C)C(=O)N[C@@H](CCC(N)=O)C(=O)NCC(=O)N1CCC[C@H]1C(=O)N[C@@H](CO)C(=O)N[C@@H](CO)C(=O)NCC(=O)N[C@@H](C)C(=O)N1CCC[C@H]1C(=O)N1CCC[C@H]1C(=O)N1CCC[C@H]1C(=O)N[C@@H](CO)C(N)=O [SEQ ID NO: 16, H2N-Y-Aib-E-G-T-F-I-S-D-I-S-I-Aib-K[{Gly}3-gGlu-C18OH]-DRIHQEEFIEWILAQGPSSGAPPPS-NH2] (H-Y[Aib]EGTFISDLSI[Aib]K([Gly-Gly-Gly-γGlu-C18 diacid])DRIHQEEFIEWLLAQGPSSGAPPPS-NH2) | > 0.01 µM | >9.9 mg/mL | > 10 mg/mL |  | 
3 | CC[C@H](C)[C@H](NC(=O)[C@H](Cc1ccccc1)NC(=O)[C@H](CCC(=O)O)NC(=O)[C@H](CCC(=O)O)NC(=O)[C@H](CCC(N)=O)NC(=O)[C@H](Cc1c[nH]cn1)NC(=O)[C@@H](NC(=O)[C@H](CCCNC(=N)N)NC(=O)[C@H](CC(=O)O)NC(=O)[C@H](CCCCNC(=O)CN(C)C(=O)CN(C)C(=O)CN(C)C(=O)CC[C@H](NC(=O)CCCCCCCCCCCCCCCCC(=O)O)C(=O)O)NC(=O)C(C)(C)NC(=O)[C@@H](NC(=O)[C@H](CO)NC(=O)[C@H](CC(C)C)NC(=O)[C@H](CC(=O)O)NC(=O)[C@H](CO)NC(=O)[C@@H](NC(=O)[C@H](Cc1ccccc1)NC(=O)[C@@H](NC(=O)CNC(=O)[C@H](CCC(=O)O)NC(=O)C(C)(C)NC(=O)[C@@H](N)Cc1ccc(O)cc1)[C@@H](C)O)[C@@H](C)CC)[C@@H](C)CC)[C@@H](C)CC)C(=O)N[C@@H](CCC(=O)O)C(=O)N[C@@H](Cc1c[nH]c2ccccc12)C(=O)N[C@@H](CC(C)C)C(=O)N[C@@H](CC(C)C)C(=O)N[C@@H](C)C(=O)N[C@@H](CCC(N)=O)C(=O)NCC(=O)N1CCC[C@H]1C(=O)N[C@@H](CO)C(=O)N[C@@H](CO)C(=O)NCC(=O)N[C@@H](C)C(=O)N1CCC[C@H]1C(=O)N1CCC[C@H]1C(=O)N1CCC[C@H]1C(=O)N[C@@H](CO)C(N)=O [SEQ ID NO: 17, H2N-Y-Aib-E-G-T-F-I-S-D-I-S-I-Aib-K[{N-MeGly}3-gGlu-C18OH]-DRIHQEEFIEWILAQGPSSGAPPPS-NH2] (H-Y[Aib]EGTFISDLSI[Aib]K([Sar-Sar-Sar-γGlu-C18 diacid])DRIHQEEFIEWLLAQGPSSGAPPPS-NH2) | > 0.01 µM | >11.8 mg/mL | > 10.9 mg/mL |  | 
4 | semaglutide [reference compound] |  |  |  | +1.15 ± 0.255 mmol/L* 0-2 h | +10.21 ± 0.503 mmol/L* 0-2 h
